The source of these data is patent publication US10058688B2 (Massachusetts Institute of Technology, priority 2012, dated 2018).

Structures are written as SMILES. Where two headings read alike, the source gives them in different places.

The test system of data set [1] is SKOV3 cells. Particulars: for 2 hours; Royer et al.; used as positive control; cited from earlier work.
The subject of the next data set is ovarian cancer. Particulars: cited from earlier work.
The test system of data set [2] is SKOV3 cells. Briefly: In vitro cytotoxicity study. Type of data set: cell-based, human. Particulars: 0.1 μg/mL over a period of 7 days, FIG. 5. The protocol: RPMI 1640 with 20% fetal bovine serum (FBS) was used for culturing A2780 and OVCAR3, and McCoy's 5a cell growth media with 10% FBS was used for SKOV3 propagation. The cells were seeded in 96-well plates at 10^4 cells/well. […] The percentage cell viability was calculated as a percentage of the untreated group at each time point.

Data set [3] concerns SKOV3 luciferase-positive cells. Briefly: Treatment efficacy study. Type of data set: in vivo, nu/nu mice. From the text: The nu/nu mice were inoculated with tumor cells on Day 0 and treatment was started on Day 14. […] The devices were sterilized with ethylene oxide prior to implantation. All animal care guidelines as listed in the animal protocol were followed. The animals were imaged 2 times a week, similar to the tumor induction study. The animals in the toxicity study were sacrificed on day 56 and their organs (kidney, liver, spleen, intestines and bone) were removed immediately upon euthanasia to be fixed in 10% formalin overnight.

In data set [4] the test system is OVCAR-3 ovarian tumor cell line. Particulars: cited from earlier work.
The conditions of data set [5]: DrugBank, DB01229; cited from earlier work.

As for `N.N.[Cl][Pt][Cl]` [cisplatin], the “critical condition to kill ovarian tumor cells (concentration)” value in the data set with SKOV3 cells [1] was 10 µg/mL. In addition, the “subjects who completed all cycles of therapy” value is reported as 42% in the data set on ovarian cancer (IP therapy) and 83% with ovarian cancer (IV therapy). In addition, the overall survival is listed as 65.6 months with ovarian cancer (IP treatment, p=0.03) and 49.7 months in the data set on ovarian cancer (IV treatment). In addition, the “killing of tumor cells at 0.1 μg/mL” value in the data set on SKOV3 cells [2] is reported as “too low to kill tumor cells”. Moreover, the tumor size result in data set [3] (IP bolus injection (10 mg/kg), 1 dose per week) is reported as “remained relatively small”. Also, the tumor mass entry in data set [3] (device or IP bolus 5 mg/kg 1x/wk from Day 14, vs untreated, FIG. 8) is “significant tumor mass reduction”.

With `CC(=O)O[C@H]1C(=O)[C@@]2(C)[C@H]([C@H](OC(=O)c3ccccc3)[C@]3(O)C[C@H](OC(=O)[C@H](O)[C@@H](NC(=O)c4ccccc4)c4ccccc4)C(C)=C1C3(C)C)[C@]1(OC(C)=O)CO[C@@H]1C[C@@H]2O` [paclitaxel], the median survival was 60 days in data set [4] (10 mg/kg dose) and “about 70 days” in data set [4] (40 mg/kg). Further, the “log P” value in data set [5] is listed as “about 3.5”.
